As a reminder, the IC50 is the concentration that inhibits the measured activity by half. One may read the inhibition as the drop in the measured response relative to a control, in per cent. The low end stands for little suppression, the high end for strong suppression.

Among the data in patent US20160221974A1, “SODIUM CHANNEL MODULATORS FOR THE TREATMENT OF PAIN AND DIABETES” (CHROMOCELL CORPORATION, priority 2013, published 2016) are IC50 and inhibition values, retold here.

One data set deals with T1, hNaV1.7 (Homo sapiens, UniProt Q15858).
T1 construct: expressed in transfected cells
Kind of data set: FDSS Membrane Potential In-Vitro Assay. The data set is classed as cell-based. Particulars: stimulation with veratridine and scorpion venom, read-out: NaV1.7 IC50.

Another data set has as its target T2, NaV1.7 (Homo sapiens, UniProt Q15858).
T2 construct: expressed in transfected cells
Kind of data set: Patchliner Electrophysiological In-Vitro Assay (NaV1.7). The data set is classed as cell-based. Particulars: Patchliner patch clamp, HEK293, holding at V1/2. On the procedure: In vitro assays were performed in recombinant cell line that stably express a heterotrimeric protein of interest from an introduced nucleic acid encoding the alpha subunit (hNav1.7, SCN9A), the beta subunit (SCNB1) and the beta subunit (SCNB2). The cell line was engineered using Human Embryonic Kidney 293 cells as host background. Additional cell lines stably expressing recombinant Nav1.7 or Nav1.5 alpha subunit alone or in combination with various beta subunits can also be used in in-vitro assays.
The recording of sodium current from stable HEK293 cell lines expressing NaV1.7 or NaV1.5 was done on a Patchliner® instrument, Nanion Technologies. The Patchliner® is a fully automated bench-top patch clamp platform and can record simultaneously from up to eight single cells with GΩ seals.
For patch-clamp experiments, cells were grown under standard culturing conditions in Dulbecco's Modified Eagles medium supplemented with 10% fetal bovine serum, glutamine and HEPES. Cells were harvested and kept in suspension for up to 4 hours with no significant change in quality or ability to patch. Whole cell patch clamp recordings were conducted according to Nanion's standard procedure for the Patchliner®. Experiments were conducted at room temperature.
Voltage protocols were designed to establish: 1) peak current amplitude (Imax), 2) test potential (Vmax) and 3) half-inactivation potential (V1/2) for each of the eight individual cells. To determine V1/2, a standard steady-state inactivation protocol was executed using a series of fifteen 500 ms depolarizing pre-pulses in 10 mV increments (starting at −130 mV) and immediately followed by a 10 ms test pulse to Vmax. To estimate test compound affinity to the inactivated state of sodium channel (Ki), the holding potential for each cell was set automatically to the V1/2 calculated from a steady-state inactivation data. The current was activated with the following voltage protocol: holding at V1/2 for 2-5 seconds, return to the −120 mV for 5-10 ms to relieve fast inactivation, stepping to test potential (Vmax) for 10-20 ms. This voltage protocol was repeated every 10 seconds to establish the baseline with 2-3 buffer additions followed by the test compound addition. The dose-dependent inhibition was analyzed using Nanion's Data Analysis Package.
On the technique in general: In patch-clamp work, channel activity is measured electrically.

The target in another data set is T3, CYP3A4 (Homo sapiens, UniProt P08684).
T3 construct: purchased Invitrogen
Kind of data set: In-Vitro Cytochrome P450 (CYP450) Inhibition Assay (Vivid CYP450). The data set is classed as in vitro ADME. Particulars: CYP3A4 enzyme complex (Vivid CYP450, Invitrogen), 6 μM test concentration. The method, then: We evaluated interaction of drug candidates with cytochrome P450 enzymes which are a major determinant of drug clearance via oxidative metabolism using a high throughput compatible, fluorescence based CYP450 screening assay (Vivid® CYP450, Invitrogen) according to manufacturer's directions.
In brief, test compounds at four different concentrations (μM—6.0, 2.0, 0.7, 0.2), a positive control (Ketoconazole) and a solvent control were incubated at room temperature in unique wells of a 96-well microtiter plate with CYP3A4 enzyme complex for 20 minutes. A pre-read fluorescence (Ex−485 nm/Em−530 nm) was measured at the start of the incubation using a Tecan Safire^2 microplate reader-monochromator to determine background fluorescence. At the end of the incubation period, enzyme substrate and co-enzyme were added and the reaction was kinetically monitored for 1 hour by measuring fluorescence every minute. Effect of test compounds on inhibition of CYP3A4 metabolism of provided substrate was determined by calculating the ratio of the effective reaction rate in presence of test compound to that in the absence of inhibitor.

T3 sequence (P08684 2-503 limits assumed): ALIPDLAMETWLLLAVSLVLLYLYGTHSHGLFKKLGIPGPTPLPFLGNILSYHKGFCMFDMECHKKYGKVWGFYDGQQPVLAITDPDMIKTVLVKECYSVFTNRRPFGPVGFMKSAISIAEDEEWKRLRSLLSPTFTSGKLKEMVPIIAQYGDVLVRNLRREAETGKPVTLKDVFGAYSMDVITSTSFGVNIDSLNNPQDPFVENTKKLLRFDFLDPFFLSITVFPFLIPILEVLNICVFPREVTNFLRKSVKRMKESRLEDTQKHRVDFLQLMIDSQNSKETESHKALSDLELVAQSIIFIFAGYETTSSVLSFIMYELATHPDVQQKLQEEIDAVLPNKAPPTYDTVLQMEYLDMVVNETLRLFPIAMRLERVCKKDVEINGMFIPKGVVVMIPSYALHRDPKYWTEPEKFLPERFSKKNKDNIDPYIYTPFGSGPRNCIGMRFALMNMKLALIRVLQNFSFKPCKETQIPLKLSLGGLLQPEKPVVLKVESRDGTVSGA
T1 sequence (Q15858 whole entry): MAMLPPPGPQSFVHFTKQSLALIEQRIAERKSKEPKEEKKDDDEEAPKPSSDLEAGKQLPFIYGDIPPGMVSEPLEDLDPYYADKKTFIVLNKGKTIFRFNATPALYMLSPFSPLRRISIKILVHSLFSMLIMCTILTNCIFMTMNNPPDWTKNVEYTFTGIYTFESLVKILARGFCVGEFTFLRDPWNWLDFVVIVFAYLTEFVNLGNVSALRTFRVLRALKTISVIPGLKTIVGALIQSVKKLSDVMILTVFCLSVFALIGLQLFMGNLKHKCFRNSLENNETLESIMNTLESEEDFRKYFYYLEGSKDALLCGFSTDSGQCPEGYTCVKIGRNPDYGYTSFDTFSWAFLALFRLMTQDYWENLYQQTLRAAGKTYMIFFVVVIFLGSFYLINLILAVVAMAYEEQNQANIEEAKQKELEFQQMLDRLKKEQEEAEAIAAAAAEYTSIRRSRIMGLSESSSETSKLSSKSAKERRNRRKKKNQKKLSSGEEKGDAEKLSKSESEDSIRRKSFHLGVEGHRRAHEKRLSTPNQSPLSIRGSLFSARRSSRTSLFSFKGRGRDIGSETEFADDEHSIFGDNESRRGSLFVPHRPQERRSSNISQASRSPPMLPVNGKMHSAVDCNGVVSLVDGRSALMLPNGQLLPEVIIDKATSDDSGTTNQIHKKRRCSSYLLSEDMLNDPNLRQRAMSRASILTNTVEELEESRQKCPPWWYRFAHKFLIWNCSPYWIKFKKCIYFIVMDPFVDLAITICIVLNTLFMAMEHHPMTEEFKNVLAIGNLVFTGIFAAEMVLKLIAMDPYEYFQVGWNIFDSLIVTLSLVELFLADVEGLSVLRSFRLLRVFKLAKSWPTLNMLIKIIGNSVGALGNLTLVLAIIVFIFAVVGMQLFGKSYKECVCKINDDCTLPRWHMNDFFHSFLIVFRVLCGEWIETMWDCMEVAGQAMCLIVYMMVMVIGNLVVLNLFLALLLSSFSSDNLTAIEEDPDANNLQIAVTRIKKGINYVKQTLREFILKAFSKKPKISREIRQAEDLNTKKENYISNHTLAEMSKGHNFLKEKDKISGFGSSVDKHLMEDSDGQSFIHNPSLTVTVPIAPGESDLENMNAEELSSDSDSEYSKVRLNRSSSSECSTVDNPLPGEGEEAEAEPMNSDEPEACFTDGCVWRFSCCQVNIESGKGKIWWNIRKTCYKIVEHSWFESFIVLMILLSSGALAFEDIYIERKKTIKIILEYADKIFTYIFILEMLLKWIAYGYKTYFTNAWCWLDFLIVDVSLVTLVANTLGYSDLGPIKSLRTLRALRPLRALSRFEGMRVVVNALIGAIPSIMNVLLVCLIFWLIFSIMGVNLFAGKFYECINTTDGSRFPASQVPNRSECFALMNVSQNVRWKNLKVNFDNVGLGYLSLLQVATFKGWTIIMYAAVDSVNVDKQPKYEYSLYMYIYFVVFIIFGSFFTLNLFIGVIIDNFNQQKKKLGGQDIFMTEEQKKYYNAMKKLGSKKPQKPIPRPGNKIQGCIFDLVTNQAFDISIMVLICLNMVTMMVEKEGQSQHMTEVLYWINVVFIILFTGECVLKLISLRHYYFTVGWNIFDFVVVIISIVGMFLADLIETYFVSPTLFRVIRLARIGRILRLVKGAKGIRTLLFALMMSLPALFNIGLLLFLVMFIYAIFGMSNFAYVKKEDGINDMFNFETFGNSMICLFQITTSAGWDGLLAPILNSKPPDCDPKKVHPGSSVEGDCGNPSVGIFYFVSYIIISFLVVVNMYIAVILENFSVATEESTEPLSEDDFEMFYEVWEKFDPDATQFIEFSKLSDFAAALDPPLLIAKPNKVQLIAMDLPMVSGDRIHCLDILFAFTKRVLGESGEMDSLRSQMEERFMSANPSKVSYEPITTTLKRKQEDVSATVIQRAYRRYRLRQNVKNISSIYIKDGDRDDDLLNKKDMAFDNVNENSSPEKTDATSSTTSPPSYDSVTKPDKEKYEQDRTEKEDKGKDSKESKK
T1 sequence (Q07699 19-218 partner): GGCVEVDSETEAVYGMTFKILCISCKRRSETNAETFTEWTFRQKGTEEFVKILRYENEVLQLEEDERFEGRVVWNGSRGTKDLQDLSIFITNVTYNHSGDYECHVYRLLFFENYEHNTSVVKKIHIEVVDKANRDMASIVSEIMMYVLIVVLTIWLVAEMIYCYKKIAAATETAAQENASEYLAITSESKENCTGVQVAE
T1 sequence (O60939 30-215 partner): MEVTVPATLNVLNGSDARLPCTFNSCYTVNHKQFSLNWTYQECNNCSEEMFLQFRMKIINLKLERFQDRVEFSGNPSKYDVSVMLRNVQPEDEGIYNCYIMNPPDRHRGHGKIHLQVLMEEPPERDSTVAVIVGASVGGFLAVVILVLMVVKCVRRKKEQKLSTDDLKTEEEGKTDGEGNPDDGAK
T2 sequence (Q15858 whole entry): as the sequence (Q15858 whole entry) above
T2 sequence (Q07699 19-218 partner): as the sequence (Q07699 19-218 partner) above
T2 sequence (O60939 30-215 partner): as the sequence (O60939 30-215 partner) above

For the compound `CC(NC(=O)c1cc(-c2cc(Cl)ccc2Oc2cc(F)c(S(=O)(=O)Nc3ncns3)cc2Cl)ccn1)C(=O)O` (racemic) [Compound 5, 2-(4-(2-(4-(N-(1,2,4-thiadiazol-5-yl)sulfamoyl)-2-chloro-5-fluorophenoxy)-5-chlorophenyl)picolinamido)propanoic acid], the IC50 on hNaV1.7 is 130 to 1000 nM; on NaV1.7, below 100 nM. This compound also registered an inhibition at 1 hour, 6 µM against CYP3A4 of 25 to 50%.
Consider `O=C(O)CCCCNC(=O)c1cc(-c2cc(Cl)ccc2Oc2cc(F)c(S(=O)(=O)Nc3ncns3)cc2Cl)ccn1` [Compound 3, 5-(4-(2-(4-(N-(1,2,4-thiadiazol-5-yl)sulfamoyl)-2-chloro-5-fluorophenoxy)-5-chlorophenyl)picolinamido)pentanoic acid], for which the IC50 on hNaV1.7 is below 130 nM. Besides, at CYP3A4, the inhibition at 1 hour, 6 µM is 50 to 100%.
The corresponding values for `O=C(O)CCCNC(=O)c1cc(-c2cc(Cl)ccc2Oc2cc(F)c(S(=O)(=O)Nc3ncns3)cc2Cl)ccn1` [Compound 4, 4-(4-(2-(4-(N-(1,2,4-thiadiazol-5-yl)sulfamoyl)-2-chloro-5-fluorophenoxy)-5-chlorophenyl)picolinamido)butanoic acid] are 130 to 1000 nM and 50 to 100%.
On to `C[C@@H](NC(=O)c1cc(-c2cc(Cl)ccc2Oc2cc(F)c(S(=O)(=O)Nc3ncns3)cc2Cl)ccn1)C(=O)O` [Compound 6, (R)-2-(4-(2-(4-(N-(1,2,4-thiadiazol-5-yl)sulfamoyl)-2-chloro-5-fluorophenoxy)-5-chlorophenyl)picolinamido)propanoic acid], for which the results for the IC50 on hNaV1.7 and at NaV1.7 were 130 to 1000 nM and below 100 nM, respectively. Also, the inhibition at 1 hour, 6 µM on CYP3A4 was in the range of 25 to 50%.
For `C[C@H](NC(=O)c1cc(-c2cc(Cl)ccc2Oc2cc(F)c(S(=O)(=O)Nc3ncns3)cc2Cl)ccn1)C(=O)O` [Compound 8, (S)-2-(4-(2-(4-(N-(1,2,4-thiadiazol-5-yl)sulfamoyl)-2-chloro-5-fluorophenoxy)-5-chlorophenyl)picolinamido)propanoic acid], in that order: 130 to 1000 nM, below 100 nM and 25 to 50%.
With `N#Cc1cc(S(=O)(=O)Nc2ncns2)ccc1Oc1ccc(Cl)cc1-c1ccnc(C(=O)NCCC(=O)O)c1` [Compound 9, 3-(4-(2-(4-(N-(1,2,4-thiadiazol-5-yl)sulfamoyl)-2-cyanophenoxy)-5-chlorophenyl)picolinamido)propanoic acid], on hNaV1.7, the IC50 lay within 130 to 1000 nM. On CYP3A4, the inhibition at 1 hour, 6 µM was 0 to 25%.
As to `O=C(O)CCNC(=O)c1cc(-c2cc(Cl)ccc2Oc2cc(F)c(S(=O)(=O)Nc3ncns3)cc2F)ccn1` [Compound 10, 3-(4-(2-(4-(N-(1,2,4-thiadiazol-5-yl)sulfamoyl)-2,5-difluorophenoxy)-5-chlorophenyl)picolinamido)propanoic acid], the IC50 at hNaV1.7 was 130 to 1000 nM. On CYP3A4, this compound yielded an inhibition at 1 hour, 6 µM of 25 to 50%.
Take `O=C(O)CNCCCc1cc(Cl)ccc1Oc1cc(F)c(S(=O)(=O)Nc2cscn2)cc1Cl` [Compound 11, 2-((3-(5-chloro-2-(2-chloro-5-fluoro-4-(N-(thiazol-4-yl)sulfamoyl)phenoxy)phenyl)propyl)amino)acetic acid]: the IC50 on NaV1.7 is below 100 nM. On CYP3A4, this compound had an inhibition at 1 hour, 6 µM of 0 to 25%.
For the compound `O=C(O)CNCCCc1cc(Cl)ccc1Oc1cc(F)c(S(=O)(=O)Nc2nccs2)cc1Cl` [Compound 13, 2-((3-(5-chloro-2-(2-chloro-5-fluoro-4-(N-(thiazol-2-yl)sulfamoyl)phenoxy)phenyl)propyl)amino)acetic acid], the results for the IC50 at hNaV1.7 and at NaV1.7 were below 130 nM and below 100 nM, respectively. Also, on CYP3A4, the inhibition at 1 hour, 6 µM lay within 0 to 25%.
With `O=C(O)C1CCN(CCCc2cc(Cl)ccc2Oc2cc(F)c(S(=O)(=O)Nc3cscn3)cc2Cl)CC1` [Compound 14, 1-(3-(5-chloro-2-(2-chloro-5-fluoro-4-(N-(thiazol-4-yl)sulfamoyl)phenoxy)phenyl)propyl)piperidine-4-carboxylic acid], the figures for the IC50 at hNaV1.7 and on NaV1.7 were 1000 to 20000 nM and 100 to 1000 nM, respectively. At CYP3A4, the inhibition at 1 hour, 6 µM lay within 0 to 25%.
For `NC1(C(=O)O)CCN(CCCc2cc(Cl)ccc2Oc2cc(F)c(S(=O)(=O)Nc3cscn3)cc2Cl)CC1` [Compound 16, 4-amino-1-(3-(5-chloro-2-(2-chloro-5-fluoro-4-(N-(thiazol-4-yl)sulfamoyl)phenoxy)phenyl)propyl)piperidine-4-carboxylic acid], in that order: below 130 nM, below 100 nM and 25 to 50%.
Turning to `N#Cc1cc(S(=O)(=O)Nc2cscn2)ccc1Oc1ccc(Cl)cc1CCCNCCC(=O)O` [Compound 23, 3-((3-(5-chloro-2-(2-cyano-4-(N-(thiazol-4-yl)sulfamoyl)phenoxy)phenyl)propyl)amino)propanoic acid], the IC50 at hNaV1.7 fell in the range of 1000 to 20000 nM; on NaV1.7, 100 to 1000 nM.
For `NC(=O)CCNCCCc1cc(Cl)ccc1Oc1cc(F)c(S(=O)(=O)Nc2cscn2)cc1Cl` [Compound 26, 3-((3-(5-chloro-2-(2-chloro-5-fluoro-4-(N-(thiazol-4-yl)sulfamoyl)phenoxy)phenyl)propyl)amino)propanamide], in that order: below 130 nM and below 100 nM.
In the case of `O=C(O)CC1CCN(CCCc2cc(Cl)ccc2Oc2cc(F)c(S(=O)(=O)Nc3ncns3)cc2Cl)CC1` [Compound 28, 2-(1-(3-(2-(4-(N-(1,2,4-thiadiazol-5-yl)sulfamoyl)-2-chloro-5-fluorophenoxy)-5-chlorophenyl)propyl)piperidin-4-yl)acetic acid], the figures for the IC50 on hNaV1.7 and at NaV1.7 were 130 to 1000 nM and below 100 nM, respectively.
`CCOC(=O)N(CCCc1cc(Cl)ccc1Oc1cc(F)c(S(=O)(=O)Nc2nccs2)cc1Cl)CC(=O)O` [Compound 34, 2-((3-(5-chloro-2-(2-chloro-5-fluoro-4-(N-(thiazol-2-yl)sulfamoyl)phenoxy)phenyl)propyl)(ethoxycarbonyl)amino)acetic acid]: the values for the IC50 at hNaV1.7 and at NaV1.7 were 500 to 1000 nM and 100 to 500 nM, respectively.
For `CN(CCCc1cc(Cl)ccc1Oc1cc(F)c(S(=O)(=O)Nc2cscn2)cc1Cl)CC(=O)O` [Compound 47, 2-((3-(5-chloro-2-(2-chloro-5-fluoro-4-(N-(thiazol-4-yl)sulfamoyl)phenoxy)phenyl)propyl)(methyl)amino)acetic acid], in that order: 1000 to 20000 nM and 1000 to 10000 nM.
Consider `COC(=O)CN(C)CCCc1cc(Cl)ccc1Oc1cc(F)c(S(=O)(=O)Nc2cscn2)cc1Cl` [Compound 52, methyl 2-((3-(5-chloro-2-(2-chloro-5-fluoro-4-(N-(thiazol-4-yl)sulfamoyl)phenoxy)phenyl)propyl)(methyl)amino)acetate], for which the figures for the IC50 on hNaV1.7 and on NaV1.7 were 1000 to 20000 nM and 100 to 500 nM, respectively.
Take `CCCN(CCCc1cc(Cl)ccc1Oc1cc(F)c(S(=O)(=O)Nc2nccs2)cc1Cl)CC(=O)O` [Compound 65, 2-((3-(5-chloro-2-(2-chloro-5-fluoro-4-(N-(thiazol-2-yl)sulfamoyl)phenoxy)phenyl)propyl)(propyl)amino)acetic acid]: the IC50 on NaV1.7 is below 100 nM.
The same measure, in the same setting: to `C#CCN(CCCc1cc(Cl)ccc1Oc1cc(F)c(S(=O)(=O)Nc2nccs2)cc1Cl)CCC(=O)O` [Compound 66, 3-((3-(5-chloro-2-(2-chloro-5-fluoro-4-(N-(thiazol-2-yl)sulfamoyl)phenoxy)phenyl)propyl)(prop-2-yn-1-yl)amino)propanoic acid] belongs below 100 nM; to `C#CCN(CCCc1cc(Cl)ccc1Oc1cc(F)c(S(=O)(=O)Nc2nccs2)cc1F)CC(=O)O` [Compound 67, 2-((3-(5-chloro-2-(2,5-difluoro-4-(N-(thiazol-2-yl)sulfamoyl)phenoxy)phenyl)propyl)(prop-2-yn-1-yl)amino)acetic acid], below 100 nM; to `NC(=O)CNCCCc1cc(Cl)ccc1Oc1cc(F)c(S(=O)(=O)Nc2cscn2)cc1F` [Compound 69, 2-((3-(5-chloro-2-(2,5-difluoro-4-(N-(thiazol-4-yl)sulfamoyl)phenoxy)phenyl)propyl)amino)acetamide], below 100 nM.
